Results as given in US5583222A, “Azepanes and their ring homologues having protein kinase inhibiting activity” (Hoffmann-La Roche Inc., priority 1994, dated 1996).
Where a name gives a salt, the structure may show the parent alone.

Experiments:
protein kinase C (PKC) [1] = experiment: Inhibition of protein kinase C (PKC) (isolated enzyme); assay type: biochemical; settings: partially purified PKC from swine brain; histone H1 substrate; 10 μM ATP; pH 7.4; 32° C., 2 minutes; read-out: Test Procedure A: IC50, inhibition of PKC (isolated enzyme)
Experimental: A: Inhibition of protein kinase C (PKC) (isolated enzyme): Protein kinase C (PKC) activity is determined by measuring the transfer of ^32 P-labelled phosphate from ^32 P-γ-ATP (10 μM)to histone H1 (200 μg/ml) as the substrate. Partially purified PKC from swine brain is used as the enzyme source [DEAE chromatography according to the method of U. Kikkawa et al. (Methods Enzymol. 99, 288, 1983)]. Activation of the PKC is effected by phospholipid vesicle prepared by ultrasound treatment of a mixture of 0.05 ml of phosphatidylserine (10 mg/ml) and 0.005 ml of diolein (10 mg/ml) in 5 ml of Tris-HCl buffer (20 mM, pH 7.4). The test substances are used in dimethyl sulphoxide (DMSO)/buffer in the concentration range 0.001-100 μM. The test is started by the addition of enzyme; after incubation at 32° C. for 2 minutes the reaction is stopped by the addition of 20% trichloroacetic acid (with 1% SDS and 1% sodium pyrophosphate). The precipitated radioactive histone protein is separated from excess ATP by filtration over nitrocellulose membranes and the radioactivity on the filter is measured in a scintillation counter. The inhibitory activity of the test substance is given as the micromolar concentration which is required to reduce the PKC activity by 50% (IC50 [μM]).

T-lymphocyte = experiment: Inhibition of T-lymphocyte proliferation; assay type: cell-based; settings: human mononuclear cells, PHA 1 μg/ml, [3H]thymidine, 3rd and 4th day, read-out: Test Procedure D: IC50, inhibition of T-lymphocyte proliferation
Experimental: D: Inhibition of T-lymphocyte proliferation: Human mononuclear cells are isolated from venous blood of a healthy donor and a suspension of 5×10^5 cells/ml in RPMI 1640 medium, which contains 10% FCS, is prepared. The cells are stimulated with 1 μg/ml of T-cell-specific mitogen phytohaemagglutinin (PHA). 200 μl aliquots of cell suspension are treated in microtitre plates with the test substances in serial dilutions in the concentration range 0.03-10 μM. The cell proliferation is measured on the 3rd and 4th day by incubation with 1 μCi of [^3 H]thymidine during the last 6 hours of the respective day. The radioactivity taken up is measured with a liquid scintillation counter.

protein kinase C (PKC) [2] = experiment: Inhibition of protein kinase C (PKC) (in cells), MARCKS phosphorylation in 3T3 fibroblasts; assay type: cell-based; settings: Fibroblast, TPA 100 nM, phosphorylation of 80 kD MARCKS protein, 37° C., read-out: Test Procedure C: IC50, inhibition of PKC in cells
Experimental: C: Inhibition of protein kinase C (PKC) (in cells): The intracellular protein kinase C (PKC) activity is determined in 3T3 fibroblasts by measuring the phosphorylation of a PKC-specific substrate, namely 80 kD MARCKS protein (myristoylated alanine-rich C-kinase substrate). The endogenous ATP is firstly labelled by incubating the cells at 37° C. with 80-200 μCi/ml of inorganic ^32 P-labelled phosphate. Then, the activation of the PKC is effected by phorbol ester (tetradecanoyl-phorbol 13-acetate (TPA); 100 nM). The test substances are used 15 minutes prior to TPA in dimethyl sulphoxide (DMSO)/buffer in the concentration range 0.1-100 μM. After incubation at 37° C. for 15 minutes the reaction is stopped by removing the medium and the cells are lysed by the addition of 1% Triton X-100 in phosphate buffer. The cell extract is subjected to a heat treatment (20 minutes at 90° C.) and subsequently centrifuged, whereby the MARCKS protein remains dissolved in the supernatant. This is then separated by discontinuous, one-dimensional SDS gel electrophoresis and the radioactivity in the 80 kD protein band is measured by a phosphoimager.

[3] = target: cAMP-dependent protein kinase (PKA); experiment: Inhibition of cAMP-dependent protein kinase (PKA); assay type: biochemical; settings: partially purified PKA from swine brain; histone H1 substrate; 10 μM ATP; 2 μM cyclic AMP; pH 7.4; 32° C., 2 minutes; read-out: Test Procedure B: IC50, inhibition of PKA
Experimental: B: Inhibition of CAMP-dependent protein kinase (PKA): PKA activity is determined by measuring the transfer of ^32 P-labelled phosphate from ^32 P-γ-ATP (10 μM) tO histone H1 (333 μg/ml) as the substrate. Partially purified PKA from swine brain is used as the enzyme source [DEAE chromatography according to the method of U. Kikkawa et al. (Methods Enzymol. 99, 288, 1983)]. Activation of the PKA is effected by cyclic AMP (2 μM) in Tris-HCl buffer (20 mM, pH 7.4). The test substances are used in dimethyl sulphoxide (DMSO)/buffer in the concentration range 0.001-100 μM. The test is started by the addition of enzyme; after incubation at 32° C. for 2 minutes the reaction is stopped by the addition of 20% trichloroacetic acid (with 1% SDS and 1% sodium pyrophosphate). The precipitated radioactive histone protein is separated from excess ATP by filtration over nitrocellulose membranes and the radioactivity on the filter is measured in a scintillation counter. The inhibitory activity of the test substance is given as the micromolar concentration which is required to reduce the PKA activity by 50% (IC50 [μM]).

HaCaT-cells = experiment: Inhibition of keratinocyte proliferation a) HaCaT-cells; assay type: cell-based; settings: Homo sapiens, 48 hours, [3H]thymidine incorporation, read-out: Test Procedure E a: IC50, inhibition of keratinocyte proliferation
Experimental: (§1) E Inhibition of keratinocyte proliferation: a) HaCaT-cells (immortalised human cells line): HaCaT-cell culture is effected in medium DMEM/F12 (mixture ratio 3/1) which contains serum (FCS, 5%), epidermal growth factor (EGF), hydrocortisone, cholera toxin, insulin, L-glutamine and penicillin/streptomycin. 5000 cells in 0.2 ml of medium are used per well in microtitre plates. The test substances are diluted in dimethyl sulphoxide/(DMSO)/medium and used in the concentration range 0.01-10 μM at the start of the culture. The cells are then incubated at 37° C. for 48 hours; radioactive [^3 H]thymidine is added during the last 6 hours. After disrupting the cells with trypsin incorporated activity is measured in a scintillation counter. The inhibitory activity of the test substance is given as the micromolar concentration which is required to reduce the thymidine incorporation by 50% (IC50 [μM]).

Primary keratinocytes = experiment: Inhibition of keratinocyte proliferation b) Primary keratinocytes; assay type: cell-based; settings: primary keratinocytes from human foreskin, 48 hours, [3H]thymidine incorporation, read-out: Test Procedure E b: IC50, inhibition of keratinocyte proliferation
Experimental: as §1, with “proliferation:” for “proliferation: a) HaCaT-cells (immortalised human cells line):”, “[μM]). b) Primary keratinocytes: Keratinocytes, isolated from human foreskin, are used in the primary culture up to passage 7. The culture and test conditions are identical with those of the HaCaT-cells with the exception of the use of 10000 cells per well.” for “[μM]).”

Structure (SMILES) | IC50 (protein kinase C (PKC) [1]) | IC50 (T-lymphocyte) | IC50 (protein kinase C (PKC) [2]) | IC50 [3] | IC50 (HaCaT-cells) | IC50 (Primary keratinocytes)
Cc1cc(C(=O)N[C@@H]2CNCCC[C@H]2OC(=O)c2ccc(C(=O)c3c(O)ccc4c3OCCO4)cc2)cc(C)c1O [Example 41] | 40 nM | 300 nM | > 1000 nM | 13 nM |  | 
COc1ccc(O)c(C(=O)c2ccc(C(=O)O[C@@H]3CCCNC[C@H]3NC(=O)c3cc(C)c(O)c(C)c3)cc2)c1F [Example 20, 4-(2-Fluoro-6-hydroxy-3-methoxy-benzoyl)-benzoic acid (3R,4R)-3-(4-hydroxy-3,5-dimethyl-benzoylamino)-azepan-4-yl ester hydrochloride (1:1)] |  | 100 to 6000 nM | 340 nM |  | 3000 to 10000 nM | 
COc1cc(O)c(C(=O)c2ccc(C(=O)O[C@@H]3CCCNC[C@H]3NC(=O)c3ccc(O)cc3)cc2)c(F)c1 [Example 57, 4-(2-Fluoro-6-hydroxy-4-methoxy-benzoyl)-benzoic acid (3R,4R)-3-(4-hydroxy-benzoylamino)-azepan-4-yl ester hydrochloride (1:1)] | 867 nM |  | 2000 nM | 5 nM | 300 to 600 nM | 600 nM
O=C(N[C@@H]1CNCCC[C@H]1OC(=O)c1ccc(C(=O)c2cc3ccccc3cc2O)cc1)c1ccc(O)cc1 [Example 60, 4-(3-Hydroxy-naphthalen-2-ylcarbonyl)-benzoic acid (3R,4R)-3-(4-hydroxy-benzoylamino)-azepan-4-yl ester hydrochloride (1:1)] | 1200 nM | 2000 to 5000 nM | 2700 nM | 9 nM | 300 to 500 nM | 300 to 6000 nM
Cc1cc(C(=O)N[C@@H]2CNCCC[C@H]2OC(=O)c2ccc(C(=O)c3c(O)ccc(F)c3F)cc2)cc(C)c1O [Example 25, 4-(2,3-Difluoro-6-hydroxy-benzoyl)-benzoic acid (3R,4R)3-(4-hydroxy-3,5-dimethyl-benzoylamino)-azepan-4-yl ester hydrochloride (1:1)] | 40 nM | 1000 nM | 800 nM | 14 nM |  | 
